# Laboratory results published in ChEMBL document CHEMBL1201862, “PubChem BioAssay data set” (2004).
#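 Dose response: 5 concentrations. Exposure: 48 h. Format: 96-well plates. Endpoint: linear interpolation; highest concentration if not reached. The concentration for 50% growth inhibition is given as GI50.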 The source made the active and inactive calls. Cut-off read from the data, not from the text of the source: active = GI50 up to about 1.1 µM and inactive = higher.
# What was measured:
# Assay in all cases: DTP human tumour cell line panel, 48 h
# [1] = system: SF-268
# [2] = system: COLO 205
# [3] = system: SR
# [4] = system: HOP-62
# [5] = system: NCI/ADR-RES
# [6] = system: HOP-92
# [7] = system: NCI-H522
# [8] = system: OVCAR-5
# [9] = system: SF-539
# [10] = system: HCC 2998
# [11] = system: A549
# [12] = system: OVCAR-3
# [13] = system: NCI-H226
# [14] = system: HCT-116
# [15] = system: CAKI-1
# [16] = system: Hs-578T
# [17] = system: U-251
# [18] = system: BT-549
# [19] = system: A498
SMILES,GI50 [1],GI50 [2],GI50 [3],GI50 [4],GI50 [5],GI50 [6],GI50 [7],GI50 [8],GI50 [9],GI50 [10],GI50 [11],GI50 [12],GI50 [13],GI50 [14],GI50 [15],GI50 [16],GI50 [17],GI50 [18],GI50 [19]
COc1cc(C(=O)Nc2nnc(S(N)(=O)=O)s2)cc(OC)c1OC,> 100 µM (inactive),> 100 µM (inactive),> 100 µM (inactive),> 100 µM (inactive),> 100 µM (inactive),65.6 µM (inactive),> 100 µM (inactive),> 100 µM (inactive),> 100 µM (inactive),> 100 µM (inactive),> 100 µM (inactive),> 100 µM (inactive),> 100 µM (inactive),> 100 µM (inactive),> 100 µM (inactive),> 100 µM (inactive),> 100 µM (inactive),> 100 µM (inactive),
Cn1c(=O)c2nc(SCCN3CCOCC3)[nH]c2n(C)c1=S,> 100 µM (inactive),> 100 µM (inactive),> 100 µM (inactive),> 100 µM (inactive),> 100 µM (inactive),> 100 µM (inactive),> 100 µM (inactive),> 100 µM (inactive),> 100 µM (inactive),,> 100 µM (inactive),> 100 µM (inactive),> 100 µM (inactive),> 100 µM (inactive),> 100 µM (inactive),> 100 µM (inactive),> 100 µM (inactive),> 100 µM (inactive),> 100 µM (inactive)
CCOCc1nc2c(OC)c(-c3nc4ccc(N5CCN(C)CC5)cc4[nH]3)cc(OC)c2[nH]1,63.4 µM (inactive),18.9 µM (inactive),24.2 µM (inactive),25.6 µM (inactive),> 100 µM (inactive),> 100 µM (inactive),23.5 µM (inactive),83.6 µM (inactive),19.3 µM (inactive),,46.9 µM (inactive),31.6 µM (inactive),31.9 µM (inactive),34 µM (inactive),27.6 µM (inactive),34.2 µM (inactive),43.3 µM (inactive),66.4 µM (inactive),37 µM (inactive)
CCOc1ccccc1/N=C\c1c2ccccc2cc2ccccc12,21.2 µM (inactive),32.3 µM (inactive),15.2 µM (inactive),26.1 µM (inactive),23.1 µM (inactive),21 µM (inactive),,25.8 µM (inactive),23.8 µM (inactive),18.5 µM (inactive),26.4 µM (inactive),24.7 µM (inactive),46.5 µM (inactive),18.4 µM (inactive),24.2 µM (inactive),15.3 µM (inactive),20.4 µM (inactive),28.2 µM (inactive),27 µM (inactive)
CCOC(=O)CCC(NC(=O)OCc1ccccc1)C(=O)NNC(=O)OC(C)(C)C (stereo not drawn),> 100 µM (inactive),> 100 µM (inactive),> 100 µM (inactive),> 100 µM (inactive),> 100 µM (inactive),> 100 µM (inactive),> 100 µM (inactive),> 100 µM (inactive),> 100 µM (inactive),> 100 µM (inactive),> 100 µM (inactive),> 100 µM (inactive),,> 100 µM (inactive),> 100 µM (inactive),> 100 µM (inactive),> 100 µM (inactive),> 100 µM (inactive),> 100 µM (inactive)
Cc1ccc(C(=O)N/N=C(\N=N\c2ccccc2Cl)c2ccc(N(C)C)cc2)cc1,> 100 µM (inactive),38.6 µM (inactive),18.1 µM (inactive),,27.3 µM (inactive),> 100 µM (inactive),27.5 µM (inactive),68.4 µM (inactive),21.4 µM (inactive),25.1 µM (inactive),50.6 µM (inactive),30.3 µM (inactive),60.8 µM (inactive),29.2 µM (inactive),30.5 µM (inactive),> 100 µM (inactive),62.1 µM (inactive),29.3 µM (inactive),
c1ccc2c(c1)SC1=Nc3sc4ccccc4[n+]3CN12,17.4 µM (inactive),2.13 µM (inactive),16.9 µM (inactive),21.9 µM (inactive),30.9 µM (inactive),7.53 µM (inactive),2.7 µM (inactive),15 µM (inactive),20.5 µM (inactive),,1.04 µM (active),2.88 µM (inactive),,18.5 µM (inactive),14.2 µM (inactive),13.7 µM (inactive),3.3 µM (inactive),22.8 µM (inactive),
